The text below walks through data of patent US10501734B2, “Compositions and methods of use thereof for making polypeptides with many instances of nonstandard amino acids” (Yale University, priority 2014, dated 2019).

Assay [1] has as its system ELP(30TAG)-GFP. The experiment in a line: Intact cell GFP fluorescence, ELP(30TAG)-GFP production. It counts as cell-based, E. coli. The settings on record: plasmid-based pAcF OTS in the GRO. How it is done:
(§1) Liquid cell cultures of strains harboring chromosomally integrated OTSs and GFP reporter plasmids were inoculated from frozen stocks and grown to confluence overnight. Cultures were then inoculated at 1:20 dilution in LBmin media supplemented with 30 μg/ml kanamycin. Strains were inoculated by addition of 1:20 confluent cell culture (grown overnight) and allowed to grow at 34° C. to an OD600 of 0.5-0.8 in a shaking plate incubator at 650 r.p.m (˜3 h). AARS expression was then induced by the addition of 0.2% arabinose, GFP expression was induced by the addition of 60 ng/ul anhydrotetracycline, and the appropriate nsAA was added to a concentration of 1 mM. Cells were incubated at 34° C. for an additional 16 h. Liquid cell cultures of strains harboring plasmid-based OTSs and GFP or ELP-GFP reporter plasmids were inoculated from frozen stocks and grown to confluence overnight. Cultures were then inoculated at 1:20 dilution in 2×YT media supplemented with 30 μg/ml kanamycin and 20 μg/ml chloramphenicol. […] Cells were allowed to grow at 34° C. to an OD600 of 0.5-0.8 in a shaking plate incubator at 650 r.p.m (˜3 h), reporter protein expression was then induced by the addition of 60 ng/ul anhydrotetracycline, and cells were incubated at 34° C. for an additional 16 h.
(§2) For 384 well plate-based assays, fluorescence and OD600 were directly measured following expression. For 96 well plate-based assays, cells were centrifuged at 4,000 g for 4 min. Supernatant medium was removed and cells were resuspended in PBS. This process was repeated twice with PBS. GFP fluorescence was measured on a Biotek spectrophotometric plate reader using excitation and emission wavelengths of 395 and 509 nm, respectively). Fluorescence signals were normalized by dividing the fluorescence counts by the OD600 reading. The nsAAs used in this study were purchased from Sigma-Aldrich (St. Louis, Mo.), Chemlmpex (Wood Dale, Ill.), and Bachem (Torrance, Calif.). Solutions of nsAAs (50 mM) were made in water or 50 mM NaOH; these stock solutions were diluted 50- or 100-fold (to 1 mM final concentration) into medium used for bacterial growth.

The test system of assay [2] is GFP(3TAG). It counts as cell-based, E. coli. The settings on record: plasmid-based pAcF OTS in the GRO. How it is done: as §1, §2
In assay [3] the test system is ELP(30TAG)-GFP. The experiment in a line: ELP expression and purification, yield of purified ELP(30TAG)-GFP. Particulars: for yield of purified ELP(30TAG)-GFP compared to expression of WT protein: small batch cultures. Format: cell-based, E. coli. As for the experimental part: Before batch expression, starter cultures (2 mL) of 2×YT media supplemented with 30 μg/mL kanamayacin and 20 μg/mL chloramphenicol were inoculated with transformed cells from a fresh agar plate or from stocks stored at −80° C., and incubated overnight at 34° C. while shaking at 250 rpm. Expression cultures (250 ml flasks containing 50 ml of 2×YT media, antibiotics, 0.2% arabinose and 1 mM of the nsAA) were inoculated with 0.5 ml of the starter culture and incubated at 34° C. for 4 h and then reporter protein expression was induced with 60 μg/mL anhydrotetracyclin.
Cells were harvested 24 h after inoculation by centrifugation at 4,000 g for 15 min at 4° C. The cell pellet was resuspended by vortex in ˜1.5 mL PBS buffer and stored at −80° C. or immediately purified. For purification, resuspended pellets were lysed by ultrasonic disruption (9 cycles of 10 s sonication separated by 40 s intervals). Poly(ethyleneimine) (0.2 mL of 10% solution) was added to each lysed suspension before centrifugation at 15,000 g for 3 min to separate cell debris from the soluble cell lysate.
All ELP constructs were purified by a modified Inverse Transition Cycling (ITC) protocol consisting of multiple “hot” and “cold” spins using sodium citrate to trigger the phase transition. Before purification, the soluble cell lysate was incubated for 1-2 min at ˜65° C. to denature native E. coli proteins. For “hot” spins, the ELP phase transition was triggered by adding sodium citrate to the cell lysate or the product of a previous cycle of ITC at a final concentration of ˜0.5 M. The solutions were then centrifuged at 14,000 g for 3 min and the pellets were resuspended in PBS, followed by a 3-5 min “cold” spin performed without addition of sodium citrate to remove denatured contaminant. Additional rounds of ITC were carried out as needed until sufficient purification was achieved.
Protein concentration was calculated by measuring the OD280 of purified protein stocks according to the following extinction coefficients for ELP(30TAG)-GFP.

The test system of assay [4] is ELP(10TAG)-GFP. The experiment in a line: Intact cell GFP fluorescence, ELP(10TAG)-GFP production. The settings on record: plasmid-based pAcF OTS in the GRO. Also noted: species or system E. coli. How it is done: Liquid cell cultures of strains harboring chromosomally integrated OTSs and GFP reporter plasmids were inoculated from frozen stocks and grown to confluence overnight. Cultures were then inoculated at 1:20 dilution in LBmin media supplemented with 30 μg/ml kanamycin. Strains were inoculated by addition of 1:20 confluent cell culture (grown overnight) and allowed to grow at 34° C. to an OD600 of 0.5-0.8 in a shaking plate incubator at 650 r.p.m (˜3 h). AARS expression was then induced by the addition of 0.2% arabinose, GFP expression was induced by the addition of 60 ng/ul anhydrotetracycline, and the appropriate nsAA was added to a concentration of 1 mM. Cells were incubated at 34° C. for an additional 16 h. Liquid cell cultures of strains harboring plasmid-based OTSs and GFP or ELP-GFP reporter plasmids were inoculated from frozen stocks and grown to confluence overnight. Cultures were then inoculated at 1:20 dilution in 2×YT media supplemented with 30 μg/ml kanamycin and 20 μg/ml chloramphenicol. […]
For 384 well plate-based assays, fluorescence and OD600 were directly measured following expression. […] GFP fluorescence was measured on a Biotek spectrophotometric plate reader using excitation and emission wavelengths of 395 and 509 nm, respectively). Fluorescence signals were normalized by dividing the fluorescence counts by the OD600 reading. […]

The target of assay [5] is BSA (Bos taurus, UniProt P02769). The experiment in a line: Binding to BSA coated agarose beads, GFP fluorescence. The settings on record: palmitic acid conjugated; 30 vs. 1 pAzF instances. An excerpt:
When supplied with insufficient amounts of alkyne (a ratio of 0.125, 0.25 and 0.5 alkyne:azide), a partial shift was observed as well as a “smear” of the protein band that signifies stochastic reaction of less than 30 sites. In contrast, when sufficient alkyne was supplied, a sharp band is apparent with a consistent size shift compared with the unreacted control. Next, ELP-GFP containing either 30 azide groups or a single azide group and 30 tyrosine groups were contacted with BSA coated agarose beads. The beads were subsequently washed and the amount of protein bound to the beads was measured via GFP fluorescence. The results are illustrated in FIG. 11.

Non-standard residues stand in square brackets, D forms with d. Phe(4-N3) = [N-]=[N+]=Nc1ccc(C[C@H](N)C(=O)O)cc1

Sequence of BSA (P02769 25-607): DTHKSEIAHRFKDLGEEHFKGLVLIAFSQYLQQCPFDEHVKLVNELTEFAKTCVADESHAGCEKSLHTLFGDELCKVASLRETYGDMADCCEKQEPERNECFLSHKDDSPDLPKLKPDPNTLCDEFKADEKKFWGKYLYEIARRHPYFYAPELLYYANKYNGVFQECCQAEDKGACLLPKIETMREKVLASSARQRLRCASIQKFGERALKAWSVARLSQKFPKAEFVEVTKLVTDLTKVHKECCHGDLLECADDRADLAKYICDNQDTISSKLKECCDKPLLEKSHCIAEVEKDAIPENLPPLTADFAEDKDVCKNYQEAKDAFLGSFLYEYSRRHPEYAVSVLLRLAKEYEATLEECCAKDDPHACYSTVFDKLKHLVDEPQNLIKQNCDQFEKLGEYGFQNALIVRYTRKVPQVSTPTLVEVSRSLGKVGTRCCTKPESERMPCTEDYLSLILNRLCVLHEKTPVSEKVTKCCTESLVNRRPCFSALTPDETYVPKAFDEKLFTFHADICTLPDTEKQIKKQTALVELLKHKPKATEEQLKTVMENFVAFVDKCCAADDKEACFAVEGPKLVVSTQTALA

Regarding `[N-]=[N+]=Nc1ccc(C[C@H](N)C(=O)O)cc1` [pAzF, p-azido-L-phenylalanine, reference compound], the “ELP(30TAG)-GFP fluorescence compared to WT-protein” value in assay [1] came out at 6%. The “GFP(3TAG) fluorescence compared to WT-protein” value in assay [2] is given as 75%. Also, in assay [3] (nsAA pAzF, GRO), the “Yield of purified ELP(30TAG)-GFP” value is on record as “too low to allow for purification”. Moreover, the “ELP(10TAG)-GFP fluorescence compared to WT-protein” value in assay [4] was 32%.
Turning to `CC(=O)c1ccc(C[C@H](N)C(=O)O)cc1` [pAcF, p-acetyl-L-phenylalanine, reference compound], the “ELP(30TAG)-GFP fluorescence compared to WT-protein” value in assay [1] is reported as 25%. Moreover, the “GFP(3TAG) fluorescence compared to WT-protein” value in assay [2] amounted to 110%. The “yield of purified ELP(30TAG)-GFP compared to expression of WT protein” value is reported as 18% in assay [3] (GRO) and 8% in assay [3] (parent (non-recoded) strain). In assay [4], the “ELP(10TAG)-GFP fluorescence compared to WT-protein” value came out at 87%.

B1: ELPs containing 30 pAzF nsAAs: ELP(30TAG)-GFP with 30 pAzF conjugated by click reaction to palmitic acid-alkyne (conjugate)
chain: SKGPGVPGGGVPGAGVPG[Phe(4-N3)](palmitic acid‑alkyne)GVPGGGVPGAGVPG[Phe(4-N3)](palmitic acid‑alkyne)GVPGGGVPGAGVPG[Phe(4-N3)](palmitic acid‑alkyne)GVPGGGVPGAGVPG[Phe(4-N3)](palmitic acid‑alkyne)GVPGGGVPGAGVPG[Phe(4-N3)](palmitic acid‑alkyne)GVPGGGVPGAGVPG[Phe(4-N3)](palmitic acid‑alkyne)GVPGGGVPGAGVPG[Phe(4-N3)](palmitic acid‑alkyne)GVPGGGVPGAGVPG[Phe(4-N3)](palmitic acid‑alkyne)GVPGGGVPGAGVPG[Phe(4-N3)](palmitic acid‑alkyne)GVPGGGVPGAGVPG[Phe(4-N3)](palmitic acid‑alkyne)GVPGGGVPGAGVPG[Phe(4-N3)](palmitic acid‑alkyne)GVPGGGVPGAGVPG[Phe(4-N3)](palmitic acid‑alkyne)GVPGGGVPGAGVPG[Phe(4-N3)](palmitic acid‑alkyne)GVPGGGVPGAGVPG[Phe(4-N3)](palmitic acid‑alkyne)GVPGGGVPGAGVPG[Phe(4-N3)](palmitic acid‑alkyne)GVPGGGVPGAGVPG[Phe(4-N3)](palmitic acid‑alkyne)GVPGGGVPGAGVPG[Phe(4-N3)](palmitic acid‑alkyne)GVPGGGVPGAGVPG[Phe(4-N3)](palmitic acid‑alkyne)GVPGGGVPGAGVPG[Phe(4-N3)](palmitic acid‑alkyne)GVPGGGVPGAGVPG[Phe(4-N3)](palmitic acid‑alkyne)GVPGGGVPGAGVPG[Phe(4-N3)](palmitic acid‑alkyne)GVPGGGVPGAGVPG[Phe(4-N3)](palmitic acid‑alkyne)GVPGGGVPGAGVPG[Phe(4-N3)](palmitic acid‑alkyne)GVPGGGVPGAGVPG[Phe(4-N3)](palmitic acid‑alkyne)GVPGGGVPGAGVPG[Phe(4-N3)](palmitic acid‑alkyne)GVPGGGVPGAGVPG[Phe(4-N3)](palmitic acid‑alkyne)GVPGGGVPGAGVPG[Phe(4-N3)](palmitic acid‑alkyne)GVPGGGVPGAGVPG[Phe(4-N3)](palmitic acid‑alkyne)GVPGGGVPGAGVPG[Phe(4-N3)](palmitic acid‑alkyne)GVPGGGVPGAGVPG[Phe(4-N3)](palmitic acid‑alkyne)GPGGGG-{GFP}
modifications: also: conjugated by click reaction
notes: ELP(30TAG)-GFP with 30 pAzF conjugated by click reaction to palmitic acid-alkyne
Turning to B1, the BSA binding entry in assay [5] is “improved BSA binding”.
